Experimental data from US20080171783A1, “COMPOSITIONS AND METHODS FOR TREATING HYPERPROLIFERATIVE DISEASE” (Migenix Inc., priority 2006, published 2008).

How the values were obtained:
[1] = tested on: CCRF-CEM; test: NCI In Vitro Cell Line Screening (SRB); assay type: cell-based, human; settings: Leukemia, 48 h; for GI50 / CC50: Homo sapiens; for CC50: read-out: LC50 (the source's name)
[2] = tested on: MOLT-4; test: NCI In Vitro Cell Line Screening (SRB); assay type: cell-based, human; settings: MOLT-4, Leukemia, 48 h
[3] = tested on: A549/ATCC; test: NCI In Vitro Cell Line Screening (SRB); assay type: cell-based; settings: Non-Small Cell Lung Cancer, 48 h; for GI50 / CC50: Homo sapiens; for CC50: read-out: LC50 (the source's name)
[4] = tested on: HOP-92; test: NCI In Vitro Cell Line Screening (SRB); assay type: cell-based, human; settings: HOP-92, Non-Small Cell Lung Cancer, 48 h; for GI50 / CC50: Homo sapiens; for CC50: read-out: LC50 (the source's name)
[5] = tested on: NCI-H226; test: NCI In Vitro Cell Line Screening (SRB); assay type: cell-based, human; settings: NCI-H226, Non-Small Cell Lung Cancer, 48 h; for GI50 / LC50 (concentration killing 50% of cells): Homo sapiens
[6] = tested on: HCC-2998; test: NCI In Vitro Cell Line Screening (SRB); assay type: cell-based; settings: HCC-2998, Colon Cancer, 48 h; for GI50 / LC50 (lethal concentration, 50% cell kill): Homo sapiens
[7] = tested on: HCT-15; test: NCI In Vitro Cell Line Screening (SRB); assay type: cell-based, human; settings: HCT-15, Colon Cancer, 48 h; for GI50 / CC50: Homo sapiens; for CC50: read-out: LC50 (the source's name)
[8] = tested on: SW-620; test: NCI In Vitro Cell Line Screening (SRB); assay type: cell-based; settings: SW-620, Colon Cancer, 48 h; for GI50 / CC50: Homo sapiens; for CC50: read-out: LC50 (the source's name)
[9] = tested on: SNB-19; test: NCI In Vitro Cell Line Screening (SRB); assay type: cell-based, human; settings: SNB-19, CNS Cancer, 48 h
[10] = tested on: SK-MEL-5; test: NCI In Vitro Cell Line Screening (SRB); assay type: cell-based, human; settings: SK-MEL-5, Melanoma, 48 h
[11] = tested on: UACC-62; test: NCI In Vitro Cell Line Screening (SRB); assay type: cell-based, human; settings: UACC-62, Melanoma, 48 h; for GI50 / CC50: Homo sapiens; for CC50: read-out: LC50 (the source's name)
[12] = tested on: OVCAR-4; test: NCI In Vitro Cell Line Screening (SRB); assay type: cell-based, human; settings: OVCAR-4, Ovarian Cancer, 48 h; for GI50 / CC50: Homo sapiens; for CC50: read-out: LC50 (the source's name)
[13] = tested on: ACHN; test: NCI In Vitro Cell Line Screening (SRB); assay type: cell-based, human; settings: Renal Cancer, 48 h; for GI50 / CC50: Homo sapiens; for CC50: read-out: LC50 (the source's name)
[14] = tested on: CAKI-1; test: NCI In Vitro Cell Line Screening (SRB); assay type: cell-based, human; settings: CAKI-1, Renal Cancer, 48 h; for GI50 / CC50: Homo sapiens; for CC50: read-out: LC50 (the source's name)
[15] = tested on: TK-10; test: NCI In Vitro Cell Line Screening (SRB); assay type: cell-based, human; settings: TK-10, Renal Cancer, 48 h; for GI50 / CC50: Homo sapiens; for CC50: read-out: LC50 (the source's name)
[16] = tested on: PC-3; test: NCI In Vitro Cell Line Screening (SRB); assay type: cell-based, human; settings: PC-3, Prostate Cancer, 48 h; for GI50 / CC50: Homo sapiens; for CC50: read-out: LC50 (the source's name)
[17] = tested on: MDA-MB-231/ATCC; test: NCI In Vitro Cell Line Screening (SRB); assay type: cell-based, human; settings: Breast Cancer, 48 h; for GI50 / CC50: Homo sapiens; for CC50: read-out: LC50 (the source's name)
[18] = tested on: BT-549; test: NCI In Vitro Cell Line Screening (SRB); assay type: cell-based, human; settings: BT-549, Breast Cancer, 48 h; for GI50 / CC50: Homo sapiens; for CC50: read-out: LC50 (the source's name)
[19] = tested on: 5 Leukemia and 5 Colon Cancer Cell Lines; test: Cell viability by XTT, cell line panel; assay type: cell-based; settings: for Range (Percentage of Control over the same 10 cell lines): 10 μM, lowest to highest of the ten cell lines; for viability at 10 µM: average of the ten Percentage of Control values, read-out: ARF (Average Response Factor, Average Percentage of Control)
Procedure: Compounds were solubilized at […] in DMSO and were stored at −20° C. Test compounds were initially tested at a single concentration of 10 μM and a subset of test compounds were further tested in selected cell lines using a six concentration dose response curve.
Cell Preparation Cancer cell lines were passaged in T-75 flasks prior to use in the assay in cell culture medium recommended by the ATCC (American Type Culture Collection; Table 6). On the day preceding the assay, the cells were split 1:2 to assure they were in an exponential growth phase at the time of compound treatment. Total cell and viability quantification was performed using a hemocytometer and Trypan Blue dye exclusion. […] The cells were resuspended at the appropriate cell per mL (Table 6) in tissue culture medium and added to the microtitre plates in a volume of 100 μL. Colon cell lines were incubated overnight at 37° C./5% CO2 to allow for cell adherence to the plates.
Plate Format: Each plate contains cell control wells (cells only), drug calorimetric control wells (drug only) as well as experimental wells (drug plus cells). Samples were tested in triplicate at a concentration of 10 μM and five half-logarithmic dilutions.
Cell Viability by XTT: Following incubation at 37° C. in a 5% CO2 incubator for four days, the test plates were stained with the tetrazolium dye XTT (2,3-bis(2-methoxy-4-nitro-5-sulfophenyl)-5-[(phenylamino)carbonyl]-2H-tetrazolium hydroxide). XTT-tetrazolium was metabolized by the mitochondrial enzymes of metabolically active cells to a soluble formazan product. XTT solution was prepared daily as a stock of 1 mg/mL in RPMI1640. Phenazine methosulfate (PMS) solution was prepared at 0.15 mg/mL in phosphate buffered saline (PBS) and stored in the dark at −20° C. XTT/PMS stock was prepared immediately before use by adding 40 μL of PMS per mL of XTT solution. Fifty (50) microlitres of XTT/PMS was added to each well of the plate and the plate was reincubated for 4 hours at 37° C. Plates were sealed with adhesive plate sealers and shaken gently or inverted several times to mix the soluble formazan product and the plate was read spectrophotometrically at 450/650 nm with a Molecular Devices Vmax plate reader. […] An Average Response Factor (ARF) was calculated for each compound by averaging the ten Percentage of Control values for the cell lines. […] Deviations below 100% control indicate activity. The concentration of each tested compound is 10 μM.

[20] = Homo sapiens, read-out: LC50 (the source's name)

Structure (SMILES): CC(C)(C)c1ccc(NC(=O)[C@H](CCCCN)NC(=O)OCC2c3ccccc3-c3ccccc32)cc1 [Compound 105, (S)-[5-AMINO-1-(4-TERT-BUTYL-PHENYLCARBAMOYL)-PENTYL]-CARBAMIC ACID 9H-FLUOREN-9-YLMETHYL ESTER]
- GI50 [1]: 1.69 µM
- CC50 [1]: 6.47 µM
- TGI [1]: 3.31 µM
- GI50 ([2]; Homo sapiens): 1.66 µM
- TGI [2]: 3.42 µM
- GI50 [3]: 1.77 µM
- CC50 [3]: > 100 µM
- TGI [3]: 23.5 µM
- TGI [4]: 3.08 µM
- GI50 [4]: 1.34 µM
- CC50 [4]: 7.1 µM
- GI50 [5]: 22.2 µM
- LC50 (concentration killing 50% of cells) [5]: 89.2 µM
- TGI [5]: 44.4 µM
- TGI [6]: 2.88 µM
- GI50 [6]: 1.39 µM
- LC50 (lethal concentration, 50% cell kill) [6]: 5.96 µM
- TGI [7]: 24.4 µM
- GI50 [7]: 11.1 µM
- CC50 [7]: 53.9 µM
- GI50 [8]: 2.49 µM
- CC50 [8]: 21.7 µM
- TGI [8]: 6.24 µM
- GI50 ([9]; Homo sapiens): 1.6 µM
- CC50 [9, 20]: 5.68 µM
- TGI [9]: 3.01 µM
- GI50 ([10]; Homo sapiens): 1.54 µM
- TGI [10]: 2.94 µM
- GI50 [11]: 13.7 µM
- CC50 [11]: 58.2 µM
- TGI [11]: 28.2 µM
- GI50 [12]: 1.77 µM
- CC50 [12]: > 100 µM
- TGI [12]: 4.25 µM
- GI50 [13]: 15.7 µM
- CC50 [13]: 58.5 µM
- TGI [13]: 30.3 µM
- TGI [14]: 43.9 µM
- GI50 [14]: 19.8 µM
- CC50 [14]: 97.2 µM
- GI50 [15]: 14.1 µM
- CC50 [15]: 82.9 µM
- TGI [15]: 34.1 µM
- GI50 [16]: 1.73 µM
- CC50 [16]: 6.41 µM
- TGI [16]: 3.33 µM
- TGI [17]: 26.8 µM
- GI50 [17]: 11.1 µM
- CC50 [17]: 64.7 µM
- TGI [18]: 50.6 µM
- GI50 [18]: 25.3 µM
- CC50 [18]: > 100 µM
- Range (Percentage of Control over the same 10 cell lines) [19]: 0 to 110.8%
- viability at 10 µM [19]: 53.4%

Structure (SMILES): Cc1ccc(NC(=O)[C@@H](CCCCN)NC(=O)Nc2ccc3c(c2)Cc2ccccc2-3)cc1 [Compound 173, (R)-6-AMINO-2-[3-(9H-FLUOREN-2-YL)-UREIDO]-HEXANOIC ACID P-TOLYLAMIDE]
- GI50 [1]: 1.97 µM
- CC50 [1]: > 100 µM
- TGI [1]: 5.15 µM
- GI50 ([2]; Homo sapiens): 1.93 µM
- CC50 [2, 20]: 17.5 µM
- TGI [2]: 4.43 µM
- GI50 [3]: 1.55 µM
- CC50 [3]: 7.66 µM
- TGI [3]: 3.45 µM
- TGI [4]: 5.13 µM
- GI50 [4]: 1.37 µM
- CC50 [4]: 38.5 µM
- GI50 [5]: 1.62 µM
- LC50 (concentration killing 50% of cells) [5]: 45.6 µM
- TGI [5]: 9.56 µM
- TGI [6]: 4.88 µM
- GI50 [6]: 2.22 µM
- LC50 (lethal concentration, 50% cell kill) [6]: 17.5 µM
- TGI [7]: 87.8 µM
- GI50 [7]: 23.9 µM
- CC50 [7]: > 100 µM
- GI50 [8]: 1.67 µM
- CC50 [8]: 6.12 µM
- TGI [8]: 3.19 µM
- GI50 ([9]; Homo sapiens): 1.59 µM
- TGI [9]: 3.21 µM
- GI50 ([10]; Homo sapiens): 1.03 µM
- CC50 [10, 20]: 68.3 µM
- TGI [10]: 26.5 µM
- GI50 [11]: 1.15 µM
- CC50 [11]: 6.52 µM
- TGI [11]: 2.74 µM
- GI50 [12]: 9.3 µM
- CC50 [12]: > 100 µM
- TGI [12]: 68.8 µM
- GI50 [13]: 12.2 µM
- CC50 [13]: 54.7 µM
- TGI [13]: 25.8 µM
- TGI [14]: 34.0 µM
- GI50 [14]: 0.135 µM
- CC50 [14]: > 100 µM
- GI50 [15]: 3.59 µM
- CC50 [15]: 55.4 µM
- TGI [15]: 17.6 µM
- GI50 [16]: 2.78 µM
- CC50 [16]: 44.5 µM
- TGI [16]: 11.0 µM
- TGI [17]: 2.57 µM
- GI50 [17]: 1.26 µM
- CC50 [17]: 5.24 µM
- TGI [18]: 26.9 µM
- GI50 [18]: 11.7 µM
- CC50 [18]: 61.6 µM
- Range (Percentage of Control over the same 10 cell lines) [19]: 4.3 to 108.6%
- viability at 10 µM [19]: 76.8%
